The target of the experiment is T1, human recombinant, purified wild type His-B-Raf protein kinase (Homo sapiens, UniProt P15056).
T1 construct: His
Nature of the experiment: B-Raf In Vitro ELISA Assay. In kind it is biochemical. The following applies: phosphorylation of MEK1; 2.5 nM B-Raf, 0.15 μM MEK1, 10 μM ATP; 1 hour preincubation at 25° C. On the procedure:
B-Raf In Vitro ELISA Assay
Activity of human recombinant, purified wild type His-B-Raf protein kinase was determined in vitro using an enzyme-linked immunosorbent assay (ELISA) assay format, which measures phosphorylation of the B-Raf substrate, human recombinant, purified His-derived (detagged) MEK1. The reaction utilized 2.5 nM B-Raf, 0.15 μM MEK1 and 10 μM adenosine triphosphate (ATP) in 40 mM N-(2-hydroxyethyl)piperazine-N′-(2-ethanesulfonic acid hemisodium salt (HEPES), 5 mM 1,4-dithio-DL-threitol (DTT), 10 mM MgCl2, 1 mM ethylenediaminetetraacetic acid (EDTA) and 0.2 M NaCl (1×HEPES buffer), with or without compound at various concentrations, in a total reaction volume of 25 μl in 384 well plates. B-Raf and compound were preincubated in 1×HEPES buffer for 1 hour at 25° C. Reactions were initiated with addition of MEK1 and ATP in 1×HEPES buffer and incubated at 25° C. for 50 minutes and reactions stopped by addition of 10 μl 175 mM EDTA (final concentration 50 mM) in 1×HEPES buffer. 5 μl of the assay mix was then diluted 1:20 into 50 mM EDTA in 1×HEPES buffer, transferred to 384 well black high protein binding plates and incubated overnight at 4° C. Plates were washed in tris buffered saline containing 0.1% 5 Tween20 (TBST), blocked with 50 μl Superblock (Pierce) for 1 hour at 25° C., washed in TBST, incubated with 50 μl rabbit polyclonal anti-phospho-MEK antibody (Cell Signaling) diluted 1:1000 in TBS for 2 hours at 25° C., washed with TBST, incubated with 50 μl goat anti-rabbit horseradish peroxidase-linked antibody (Cell Signaling) diluted 1:2000 in TBS for 1 hour at 25° C. and washed with TBST. 50 μl of fluorogenic peroxidase substrate (Quantablu 10-Pierce) was added and following incubation for 45-60 minutes, 50 μl QuantabluSTOP (Pierce) was added. Blue fluorescent product was detected at excitation 325 and emission 420 using a TECAN Ultra plate reader. Data was graphed and IC50s calculated using Excel Fit (Microsoft).
On the technique in general: ELISA stands for enzyme-linked immunosorbent assay.

T1 sequence (P15056 whole entry): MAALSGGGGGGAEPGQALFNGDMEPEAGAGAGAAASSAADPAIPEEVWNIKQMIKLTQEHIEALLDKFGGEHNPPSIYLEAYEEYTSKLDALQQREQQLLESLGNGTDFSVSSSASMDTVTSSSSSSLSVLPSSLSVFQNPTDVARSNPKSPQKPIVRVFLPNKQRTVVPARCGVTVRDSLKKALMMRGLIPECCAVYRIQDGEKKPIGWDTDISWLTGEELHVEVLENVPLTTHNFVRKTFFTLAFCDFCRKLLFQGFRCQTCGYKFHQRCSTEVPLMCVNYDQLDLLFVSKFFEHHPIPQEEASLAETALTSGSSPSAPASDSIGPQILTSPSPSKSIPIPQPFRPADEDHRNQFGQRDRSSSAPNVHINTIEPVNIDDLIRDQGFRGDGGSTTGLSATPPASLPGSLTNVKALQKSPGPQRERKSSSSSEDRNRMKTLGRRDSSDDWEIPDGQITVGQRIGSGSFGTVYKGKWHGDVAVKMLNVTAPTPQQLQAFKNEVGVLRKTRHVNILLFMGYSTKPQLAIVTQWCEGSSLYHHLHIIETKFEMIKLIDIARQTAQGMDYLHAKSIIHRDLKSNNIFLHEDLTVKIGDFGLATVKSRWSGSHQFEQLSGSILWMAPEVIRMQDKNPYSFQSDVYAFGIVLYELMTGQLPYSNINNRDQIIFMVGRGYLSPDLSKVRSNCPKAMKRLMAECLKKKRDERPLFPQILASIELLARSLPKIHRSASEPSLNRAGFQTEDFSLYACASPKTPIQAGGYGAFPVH

A word on the IC50: it is the point on the concentration scale where inhibition reaches its midpoint. Consider `COc1cc2ncnc(Nc3cc(NC(=O)c4cc(C(F)(F)F)ccc4F)ccc3C)c2cc1OC` [Example 15, N-{3-[(6,7-Dimethoxyquinazolin-4-yl)amino]-4-methylphenyl}-2-fluoro-5-(trifluoromethyl)benzamide], for which the half-inhibitory concentration (IC50) worked out at 370 nM. To `COc1cc2c(Nc3cc(NC(=O)c4cccc(C(C)(C)C#N)c4)ccc3C)ncnc2cc1OCc1ccccc1` [Example 5, N-(3-{[7-(Benzyloxy)-6-methoxyquinazolin-4-yl]amino}-4-methylphenyl)-3-(1-cyano-1-methylethyl)benzamide] belongs 1100 nM; to `COc1cc2ncnc(Nc3cc(NC(=O)c4cccc(C5(C#N)CCC5)c4)ccc3C)c2cc1OC` [Example 7, 3-(1-Cyanocyclobutyl)-N-{3-[(6,7-dimethoxyquinazolin-4-yl)amino]-4-methylphenyl}benzamide], 193 nM.

(Values after patent US20080306096A1, “Quinazoline Derivatives, Process for Their Preparation and Their Use as Anti-Cancer Agents” (ASTRAZENECA AB, priority 2005, published 2008).)
